The supplement of paper PMC10307832

Key:
Test in all cases: relative viability (nuclei count vs DMSO), 5 days (fraction); higher = more cells survive
NCI-H647 = test system: NCI-H647
Summary of the method: (§1)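 Relative viability was taken as the ratio of nuclei in treated wells to nuclei in vehicle wells. Lung cancer cell lines in 1536-well plates received compounds by pin tool one day after seeding, either one drug alone or a fixed anchor-drug dose plus five library-drug doses (not always all listed) in √10 steps. Nuclei were counted on 4× images after 5 days of treatment, and values are medians of duplicate plates.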

NCI-H2347 = test system: NCI-H2347
Summary of the method: as §1

NCI-H1793 = test system: NCI-H1793
Summary of the method: as §1

NCI-H1355 = test system: NCI-H1355
Summary of the method: as §1

NCI-H2228 = test system: NCI-H2228
Summary of the method: as §1

HARA = test system: HARA
Summary of the method: as §1

NCI-H2009 = test system: NCI-H2009
Summary of the method: as §1

NCI-H358 = test system: NCI-H358
Summary of the method: as §1

NCI-H838 = test system: NCI-H838
Summary of the method: as §1

COR-L23 = test system: COR-L23
Summary of the method: as §1

NCI-H322M = test system: NCI-H322M
Summary of the method: as §1

EKVX = test system: EKVX
Summary of the method: as §1

NCI-H1993 = test system: NCI-H1993
Summary of the method: as §1

Compound: COc1cc(N2CCC(C(N)=O)CC2)ccc1Nc1nc(N)c(Cl)c(Nc2ccccc2S(=O)(=O)C(C)C)n1 [HG-5-88-01] + CCNC(=O)c1noc(-c2cc(C(C)C)c(O)cc2O)c1-c1ccc(CN2CCOCC2)cc1 [Luminespib] (partner 0.01 µM)
- relative viability (NCI-H647; first compound 1.265 µM): 0.148
- relative viability (NCI-H647; first compound 4 µM): 0.248
- relative viability (NCI-H2347; first compound 0.04 µM): 0.282
- relative viability (NCI-H2347; first compound 0.1265 µM): 0.467
- relative viability (NCI-H2347; first compound 0.4 µM): 0.32
- relative viability (NCI-H2347; first compound 1.265 µM): 0.398
- relative viability (NCI-H2347; first compound 4 µM): 0.339
- relative viability (NCI-H1793; first compound 0.1265 µM): 0.168
- relative viability (NCI-H1793; first compound 0.4 µM): 0.198
- relative viability (NCI-H1793; first compound 4 µM): 0.272
- relative viability (NCI-H1355; first compound 0.04 µM): 0.663
- relative viability (NCI-H1355; first compound 0.1265 µM): 0.753
- relative viability (NCI-H1355; first compound 0.4 µM): 0.703
- relative viability (NCI-H1355; first compound 1.265 µM): 0.617
- relative viability (NCI-H1355; first compound 4 µM): 0.809
- relative viability (NCI-H2228; first compound 0.04 µM): 0.117
- relative viability (NCI-H2228; first compound 0.1265 µM): 0.149
- relative viability (NCI-H2228; first compound 0.4 µM): 0.122
- relative viability (NCI-H2228; first compound 1.265 µM): 0.109
- relative viability (NCI-H2228; first compound 4 µM): 0.116
- relative viability (HARA; first compound 0.04 µM): 0.777
- relative viability (HARA; first compound 0.1265 µM): 0.813
- relative viability (HARA; first compound 0.4 µM): 0.565
- relative viability (HARA; first compound 1.265 µM): 0.5
- relative viability (HARA; first compound 4 µM): 0.421
- relative viability (NCI-H2009; first compound 0.04 µM): 1.11
- relative viability (NCI-H2009; first compound 0.1265 µM): 1.06
- relative viability (NCI-H2009; first compound 0.4 µM): 0.954
- relative viability (NCI-H2009; first compound 1.265 µM): 0.994
- relative viability (NCI-H2009; first compound 4 µM): 1.12
- relative viability (NCI-H358; first compound 0.04 µM): 0.335
- relative viability (NCI-H358; first compound 0.1265 µM): 0.256
- relative viability (NCI-H358; first compound 0.4 µM): 0.422
- relative viability (NCI-H358; first compound 1.265 µM): 0.099
- relative viability (NCI-H358; first compound 4 µM): 0.148
- relative viability (NCI-H838; first compound 0.04 µM): 0.322
- relative viability (NCI-H838; first compound 0.1265 µM): 0.288
- relative viability (NCI-H838; first compound 0.4 µM): 0.212
- relative viability (NCI-H838; first compound 1.265 µM): 0.276
- relative viability (NCI-H838; first compound 4 µM): 0.205
- relative viability (COR-L23; first compound 0.04 µM): 0.69
- relative viability (COR-L23; first compound 0.1265 µM): 0.575
- relative viability (COR-L23; first compound 0.4 µM): 0.589
- relative viability (COR-L23; first compound 1.265 µM): 0.614
- relative viability (COR-L23; first compound 4 µM): 0.557
- relative viability (NCI-H322M; first compound 0.04 µM): 0.782
- relative viability (NCI-H322M; first compound 0.1265 µM): 0.835
- relative viability (NCI-H322M; first compound 0.4 µM): 0.555
- relative viability (NCI-H322M; first compound 4 µM): 0.627
- relative viability (EKVX; first compound 0.04 µM): 0.892
- relative viability (EKVX; first compound 0.1265 µM): 0.838
- relative viability (EKVX; first compound 0.4 µM): 0.752
- relative viability (EKVX; first compound 4 µM): 0.838
- relative viability (NCI-H1993; first compound 0.04 µM): 0.957
- relative viability (NCI-H1993; first compound 0.1265 µM): 0.826
- relative viability (NCI-H1993; first compound 0.4 µM): 0.83
- relative viability (NCI-H1993; first compound 1.265 µM): 0.648
- relative viability (NCI-H1993; first compound 4 µM): 0.578
